Reference: US8163901B2, “Amide derivatives as ion-channel ligands and pharmaceutical compositions and methods of using the same” (Evotec AG, priority 2008, dated 2012)

How the values were obtained:
Type in all cases: cell-based
hVR1 [1] = target: T1, hVR1 (Homo sapiens, UniProt Q8NER1); assay: Calcium uptake assay (FLIPR), inhibition of capsaicin-induced calcium influx
T1 construct: R710-07 (T-REx host cell line); host or cells: T-REx System cell line, called 'human keratinocyte cell line' and 'HEK 293 cells'
Description: (§1) Functional activity of compounds against the VR1 receptor was determined by measuring changes in intracellular calcium in HEK 293 cells expressing hVR1. Compounds were examined for their ability to inhibit agonist-induced calcium influx. Relative levels of [Ca^2+] were monitored in a 96-well format using a calcium-sensitive fluorescence dye and a FLIPR TETRA, Molecular Devices.
(§2) Cells that express high levels of VR1 were obtained by generation of a cell line from human keratinocytes with heterologous expression of VR1 under control of an inducible promoter. Specifically, cells expressing human VR1 under the control of the human cytomegalovirus immediate-early (CMV) promoter and two tetracycline operator 2 (TetO2) sites were made using the T-REx System (Invitrogen, Carlsbad, Calif., USA). Details and methods concerning this system are published (Hum. Gene Ther. 9, pp. 1939-1950, 1998; Annu. Rev. Microbiol. 48, pp. 345-369, 1994; Mol. Biol. 169, pp. 707-'721, 1983). Human VR1 was subcloned into the T-REx System pcDNA5/TO vector (Invitrogen Cat# V1033-20) which was transfected into the T-REx System human keratinocyte cell line (Invitrogen Cat# R710-07) from which a stable cell line was established which expresses VR1 after induction by exposure to tetracycline or doxycycline (Hum. Gene Ther. 9, pp. 1939-1950, 1998; instructions that come with purchase of products noted above). Cells were maintained in a CO2 incubator (5% CO2) at 37° C. in culture medium containing DMEM with phenol red (Mediatech Cat #: 15-017-CV) supplemented with 10% heat-inactivated Fetal Bovine Serum, 5% Penicillin-streptomycin (Mediatech Cat #: 30-002-CI), 5% Glutamax® (L-Alanyl-L-Glutamine, Mediatech Cat #: 25-015-CI), 200 μg/ml hygromycin (Mediatech #:30-240-CR), 0.5 μg/ml blasticidin (Invitrogen #46-1120)).
(§3) For assay preparation, cells expressing human VR1 as described above were plated in 96-well plates (Becton Dickinson [BD] poly-D-lysine coated 96-well plates, cat #356692) at 55,000 cells per well in culture media (described above) that also contained 1 ug/ml doxycycline. Plated cells were then placed in an incubator (5% CO2) and incubated for 20-26 hours at 37° C., until the cells had grown to near confluency. Media was then aspirated from cells and 50 uL of dye-containing buffer (from Molecular Devices FLIPR Calcium 4 Assay kit, cat# R8141) was added to each well. Cells were then left in the dark at room temperature for 1.5-2 hours. Cell plates were then placed in the FLIPR TETRA (Molecular Devices, CA, USA). Test compounds and agonists were added to wells using the liquid handling capability of the FLIPR TETRA. Calcium responses of the cells were monitored by fluorescence readout of dye signal. Test compounds in saline (130 mM NaCl, 17 g/L sucrose, 1.8 g/L glucose, 8.8 mM HEPES, 3 mM KCl, 0.60 mM MgCl, 1.0 mM CaCl2; adjust to pH 7.4 using NaOH; 0.03% BSA added on the day of the experiment), or vehicle control in saline, were pre-incubated at the desired final concentrations in the dark at room temperature for 2 or 30 minutes with cells already containing the above mentioned dye buffer (dye solution was diluted 1:1 in culture wells with saline containing 2× the final concentration of test compound). […] Another agonist was protons via a low pH solution (saline solution described above plus 10 mM citric acid buffered to pH 5.7 with HCl instead of buffering to a neutral pH with NaOH as done for normal saline). Compounds were tested at various concentration ranges, depending upon potency of compound. After the 2 minute or 30 minute compound pre-treatment, treatment solution was then added to cells by adding a volume of treatment solution equal to the pretreatment solution already on the cells.

hVR1 [2] = target: T1, hVR1; assay: Calcium uptake assay (FLIPR), inhibition of low pH (proton)-induced calcium influx; settings: agonist protons, low pH solution pH 5.7; cells expressing hVR1
Description: as §1, §2
as §3, with “compound). Compound IC50 experiments were run using an agonist concentration at or near the EC50 of the agonist.” for “compound).”, “cells. […]” for “cells.”

hVR1 [3] = target: T1, hVR1; assay: Determination of pA2 values against capsaicin stimulation (Ca2+ imaging, Schild analysis)
Description: Changes in the fluorescence signal (λex=470-495 nm, λem=515-575 nm) are monitored throughout the experiment before agonist addition and for at least 2 min after agonist addition (enough time for the fluorescence response to reach and then decline from the absolute maximum, agonist-induced signal attained). For each well, final relative fluorescence units (RFUs) are calculated as the difference between the maximum fluorescence signal obtained in the experiment after agonist addition and the signal level seen at baseline before agonist, but after antagonist, addition (the absolute minimum level of fluorescence signal observed in the 10 seconds prior to agonist addition). […] Data are fit to an ideal curve utilizing the 4-parameter sigmoid curve-fit function in GraphPad Prism software (version 4, GraphPad Software, Inc., San Diego, Calif., USA) from which an EC50 value is obtained. […] For each antagonist, at least three concentrations are tested. Dose Ratio values are then used to make a standard Schild plot—log [antagonist concentration] plotted against log [DR−1], see Kenakin reference above for theoretical background and method. A linear regression curve-fit is then performed on these plotted points. […] If these conditions are not met, then the antagonist is rerun in a pA2 assay using different antagonist concentrations until the above conditions are met.

T1 sequence (Q8NER1 whole entry): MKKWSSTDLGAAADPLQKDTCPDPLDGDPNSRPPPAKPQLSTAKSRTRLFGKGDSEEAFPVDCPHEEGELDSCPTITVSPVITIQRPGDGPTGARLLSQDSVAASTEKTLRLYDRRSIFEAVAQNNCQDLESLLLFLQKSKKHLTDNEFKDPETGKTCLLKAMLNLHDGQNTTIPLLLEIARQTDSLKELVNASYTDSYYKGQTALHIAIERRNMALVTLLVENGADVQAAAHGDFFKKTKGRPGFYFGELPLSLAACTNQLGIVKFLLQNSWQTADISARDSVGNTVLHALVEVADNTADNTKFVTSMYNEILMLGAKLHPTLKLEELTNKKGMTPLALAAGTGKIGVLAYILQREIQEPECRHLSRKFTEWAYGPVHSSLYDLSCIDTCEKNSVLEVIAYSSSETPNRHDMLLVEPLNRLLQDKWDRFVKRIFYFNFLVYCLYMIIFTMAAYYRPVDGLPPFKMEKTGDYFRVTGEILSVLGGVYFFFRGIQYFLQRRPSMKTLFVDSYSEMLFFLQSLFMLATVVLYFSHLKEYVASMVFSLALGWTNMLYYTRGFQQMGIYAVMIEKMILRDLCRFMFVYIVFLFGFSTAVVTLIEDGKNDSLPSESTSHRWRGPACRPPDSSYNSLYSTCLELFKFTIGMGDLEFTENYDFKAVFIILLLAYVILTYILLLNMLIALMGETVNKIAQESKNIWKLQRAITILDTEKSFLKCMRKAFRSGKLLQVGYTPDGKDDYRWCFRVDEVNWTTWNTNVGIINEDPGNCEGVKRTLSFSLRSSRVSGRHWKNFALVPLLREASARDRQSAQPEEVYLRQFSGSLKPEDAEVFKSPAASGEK

| Structure (SMILES) | IC50 (hVR1 [1]) [nM] | IC50 (hVR1 [2]) [nM] | Kb (hVR1 [3]) [nM] | inhibition at 1 µM (hVR1 [1]) [%] |
| --- | --- | --- | --- | --- |
| O=C(NCc1ccnc2ccccc12)C1=Cc2cc(Br)ccc2OC1 [Compound 3, 6-Bromo-2H-chromene-3-carboxylic acid (quinolin-4-ylmethyl)-amide] | – | 128 | – | – |
| CC(C)(C)c1ccc2c(c1)OC(C(=O)Nc1cnc3sc(CO)nc3c1)CO2 (centres unmarked) [Compound 8, 7-tert-Butyl-2,3-dihydro-benzo[1,4]dioxine-2-carboxylic acid (2-hydroxymethyl-thiazolo[5,4-b]pyridin-6-yl)-amide] | – | 8 | 14.5 | – |
| CC(NC(=O)C1CCc2nc(C(C)(C)C(F)(F)F)ccc2C1)c1ccc2[nH]ncc2c1 (centres unmarked) [Compound 10, 2-(2,2,2-Trifluoro-1,1-dimethyl-ethyl)-5,6,7,8-tetrahydro-quinoline-6-carboxylic acid [1-(1H-indazol-5-yl)-ethyl]-amide] | 8 | – | 4.32 | – |
| O=C(Nc1cnc2c(c1)COCC2)[C@H]1COc2cc(C(F)(F)F)ccc2O1 [Compound 17, (R)-6-Trifluoromethyl-2,3-dihydro-benzo[1,4]dioxine-2-carboxylic acid (7,8-dihydro-5H-pyrano[4,3-b]pyridin-3-yl)-amide] | 140 | – | – | – |
| C[C@@H](NC(=O)[C@@H]1CCc2nc(C(C)(C)C(F)(F)F)ccc2C1)c1cnn2c1OCCC2 [Compound 20, (R)-2-(2,2,2-Trifluoro-1,1-dimethyl-ethyl)-5,6,7,8-tetrahydro-quinoline-6-carboxylic acid [(R)-1-(6,7-dihydro-5H-pyrazolo[5,1-b][1,3]oxazin-3-yl)-ethyl]-amide] | 310 | – | – | – |
| C[C@@H](NC(=O)[C@H]1CCc2nc(C(C)(C)C(F)(F)F)ccc2C1)c1cnn2c1OCCC2 [Compound 22, (S)—N—((R)-1-(6,7-dihydro-5H-pyrazolo[5,1-b][1,3]oxazin-3-yl)ethyl)-2-(1,1,1-trifluoro-2-methylpropan-2-yl)-5,6,7,8-tetrahydroquinoline-6-carboxamide] | 76 | – | 59.5 | – |
| CC1(C(=O)Nc2cnc3sc(CO)nc3c2)CCc2nc(C(C)(C)C(F)(F)F)ccc2C1 (centres unmarked) [Compound 24, 6-Methyl-2-(2,2,2-trifluoro-1,1-dimethyl-ethyl)-5,6,7,8-tetrahydro-quinoline-6-carboxylic acid (2-hydroxymethyl-thiazolo[5,4-b]pyridin-6-yl)-amide] | – | 121 | 69.2 | – |

Next, values leading:

| IC50 (hVR1 [1]) [nM] | IC50 (hVR1 [2]) [nM] | Kb (hVR1 [3]) [nM] | inhibition at 1 µM (hVR1 [1]) [%] | Structure (SMILES) |
| --- | --- | --- | --- | --- |
| 42 | 117 | 34.7 | – | CC(NC(=O)C1CN(C)c2cc(C(F)(F)F)ccc2O1)c1ccc2[nH]ncc2c1 (mixture of isomers) [Compound 9, 4-Methyl-6-trifluoromethyl-3,4-dihydro-2H-benzo[1,4]oxazine-2-carboxylic acid [1-(1H-indazol-5-yl)ethyl]amide] |
| 103 | – | – | – | CC(NC(=O)[C@@H]1COc2cc(C(C)(C)C)ccc2O1)c1ccc2[nH]ncc2c1 (single isomer, unassigned) [Compound 6] |
| 36 | 240 | – | – | CC(C)(C)c1ccc2c(c1)OCC(C(=O)NCc1ccnc3ccccc13)O2 (centres unmarked) [Compound 1, 6-tert-butyl-N-(quinolin-4-ylmethyl)-2,3-dihydrobenzo[b][1,4]dioxine-2-carboxamide] |
| – | 143 | – | – | O=C(NCc1ccnc2ccccc12)C1=Cc2cc(Cl)ccc2OC1 [Compound 2, 6-Chloro-2H-chromene-3-carboxylic acid (Quinolin-4-ylmethyl)-amide] |
| – | 108 | – | – | O=C(NCc1ccnc2ccccc12)C1=Cc2cc(OC(F)(F)F)ccc2OC1 [Compound 4, 6-Trifluoromethoxy-2H-chromene-3-carboxylic acid (quinolin-4-ylmethyl)-amide] |
| 64 | – | 37.4 | – | CC(NC(=O)[C@H]1COc2cc(C(F)(F)F)ccc2O1)c1ccc2[nH]ncc2c1 (stereo partly drawn) [Compound 13, (R)-6-Trifluoromethyl-2,3-dihydro-benzo[1,4]dioxine-2-carboxylic acid [1-(1H-indazol-5-yl)-ethyl]-amide] |
| 820 | – | – | 54 | CC(NC(=O)[C@@H]1COc2cc(C(F)(F)F)ccc2O1)c1ccc2[nH]ncc2c1 (stereo partly drawn) [Compound 14, (S)-6-Trifluoromethyl-2,3-dihydro-benzo[1,4]dioxine-2-carboxylic acid [1-(1H-indazol-5-yl)-ethyl]-amide] |
| – | 571 | 422 | – | O=C(Nc1cnc2sc(CO)nc2c1)[C@H]1COc2cc(C(F)(F)F)ccc2O1 [Compound 16, (R)-6-Trifluoromethyl-2,3-dihydro-benzo[1,4]dioxine-2-carboxylic acid (2-hydroxymethyl-thiazolo[5,4-b]pyridin-6-yl)-amide] |
| 150 | – | 188 | – | C[C@@H](NC(=O)[C@@H]1COc2cc(C(F)(F)F)ccc2O1)c1ccc2[nH]ncc2c1 [Compound 25, (S)-6-Trifluoromethyl-2,3-dihydro-benzo[1,4]dioxine-2-carboxylic acid 1[(R)-1-(1H-indazol-5-yl)-ethyl]-amide] |
| 93 | – | 22.5 | – | C[C@@H](NC(=O)[C@H]1COc2cc(C(F)(F)F)ccc2O1)c1ccc2[nH]ncc2c1 [Compound 26, (R)-6-Trifluoromethyl-2,3-dihydro-benzo[1,4]dioxine-2-carboxylic acid [(R)-1-(1H-indazol-5-yl)-ethyl]-amide] |
